Legend:
[1] = target: Sigma non-opioid intracellular receptor 1 (Homo sapiens, UniProt Q99720); experiment: DRUGMATRIX: Sigma1 radioligand binding (ligand: [3H] Haloperidol); format: cell membranes, Jurkat, Membrane; conditions: Not Active = under 50% inhibition at 10 µM
[2] = target: 5-hydroxytryptamine receptor 4 (Cavia porcellus, UniProt O70528); format: cell membranes, Dunkin-Hartley, Striatum, Membrane; note: in other assays of this panel Not Active means under 50% inhibition at 10 µM
[3] = target: T1, Progesterone receptor (Bos taurus, UniProt Q690N0); experiment: DRUGMATRIX: Progesterone radioligand binding (ligand: [3H] R-5020); format: tissue-based, Uterus; conditions: Not Active = under 50% inhibition at 10 µM; for Ki: read-out: Ki
T1 sequence (Q690N0 whole entry): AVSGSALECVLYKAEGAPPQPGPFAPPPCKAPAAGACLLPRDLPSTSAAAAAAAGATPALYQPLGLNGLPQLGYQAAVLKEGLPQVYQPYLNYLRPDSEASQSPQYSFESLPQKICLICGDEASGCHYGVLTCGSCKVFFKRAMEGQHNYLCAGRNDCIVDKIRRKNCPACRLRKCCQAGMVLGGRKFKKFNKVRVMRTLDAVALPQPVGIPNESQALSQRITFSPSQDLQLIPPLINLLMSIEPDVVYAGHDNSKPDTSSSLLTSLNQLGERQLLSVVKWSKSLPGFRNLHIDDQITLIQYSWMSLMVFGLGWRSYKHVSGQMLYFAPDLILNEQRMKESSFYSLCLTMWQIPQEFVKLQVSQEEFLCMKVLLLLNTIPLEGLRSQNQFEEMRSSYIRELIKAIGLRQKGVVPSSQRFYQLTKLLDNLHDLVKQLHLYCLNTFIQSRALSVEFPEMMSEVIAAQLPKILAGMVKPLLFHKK

[4] = target: T2, Cysteinyl leukotriene receptor 1 (Homo sapiens, UniProt Q9Y271); format: cell membranes, CHO-K1, Membrane; note: in other assays of this panel Not Active means under 50% inhibition at 10 µM
T2 sequence (Q9Y271 whole entry): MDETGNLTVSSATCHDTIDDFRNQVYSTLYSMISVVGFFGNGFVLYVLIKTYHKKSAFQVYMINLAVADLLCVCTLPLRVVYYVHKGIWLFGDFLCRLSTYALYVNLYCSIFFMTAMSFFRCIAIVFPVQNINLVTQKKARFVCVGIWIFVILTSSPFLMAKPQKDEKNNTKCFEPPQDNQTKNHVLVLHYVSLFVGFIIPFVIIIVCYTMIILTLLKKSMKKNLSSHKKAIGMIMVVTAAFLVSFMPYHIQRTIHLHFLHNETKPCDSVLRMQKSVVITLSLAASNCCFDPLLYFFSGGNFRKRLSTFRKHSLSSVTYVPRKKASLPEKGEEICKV

[5] = target: Melanocortin receptor 5 (Homo sapiens, UniProt P33032); format: cell membranes, HEK293, Membrane; note: in other assays of this panel Not Active means under 50% inhibition at 10 µM
[6] = target: Mitogen-activated protein kinase 1 (Homo sapiens, UniProt P28482); experiment: DRUGMATRIX: Protein Serine/Threonine Kinase, ERK2 enzyme inhibition (substrate: Myelin Basic Protein); set-up: species or system Escherichia coli; conditions: Not Active = under 50% inhibition at 10 µM
[7] = target: T3, Adenosine receptor A1 (Homo sapiens, UniProt P30542); format: cell membranes, CHO, Membrane; conditions: cho;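 note: radioligand binding assay at the adenosine A1 receptor, with DPCPX serving as the labelled ligand; in other assays of this panel Not Active means under 50% inhibition at 10 µM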
T3 sequence (P30542 whole entry): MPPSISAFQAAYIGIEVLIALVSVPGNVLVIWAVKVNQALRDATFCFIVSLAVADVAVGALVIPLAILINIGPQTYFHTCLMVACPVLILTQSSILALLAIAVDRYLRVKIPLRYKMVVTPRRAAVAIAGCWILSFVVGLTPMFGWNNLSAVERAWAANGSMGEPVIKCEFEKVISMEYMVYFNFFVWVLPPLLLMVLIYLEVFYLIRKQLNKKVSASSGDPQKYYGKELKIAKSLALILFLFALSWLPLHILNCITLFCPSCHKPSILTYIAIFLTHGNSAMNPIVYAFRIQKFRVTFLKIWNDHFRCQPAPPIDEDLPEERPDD

[8] = target: Mitogen-activated protein kinase 3 (Homo sapiens, UniProt P27361); experiment: DRUGMATRIX: Protein Serine/Threonine Kinase, ERK1 enzyme inhibition (substrate: Myelin Basic Protein); set-up: species or system Escherichia coli; conditions: Not Active = under 50% inhibition at 10 µM
[9] = target: T4, Receptor-type tyrosine-protein phosphatase C (Homo sapiens, UniProt P08575); set-up: species or system Escherichia coli
T4 sequence (P08575 whole entry): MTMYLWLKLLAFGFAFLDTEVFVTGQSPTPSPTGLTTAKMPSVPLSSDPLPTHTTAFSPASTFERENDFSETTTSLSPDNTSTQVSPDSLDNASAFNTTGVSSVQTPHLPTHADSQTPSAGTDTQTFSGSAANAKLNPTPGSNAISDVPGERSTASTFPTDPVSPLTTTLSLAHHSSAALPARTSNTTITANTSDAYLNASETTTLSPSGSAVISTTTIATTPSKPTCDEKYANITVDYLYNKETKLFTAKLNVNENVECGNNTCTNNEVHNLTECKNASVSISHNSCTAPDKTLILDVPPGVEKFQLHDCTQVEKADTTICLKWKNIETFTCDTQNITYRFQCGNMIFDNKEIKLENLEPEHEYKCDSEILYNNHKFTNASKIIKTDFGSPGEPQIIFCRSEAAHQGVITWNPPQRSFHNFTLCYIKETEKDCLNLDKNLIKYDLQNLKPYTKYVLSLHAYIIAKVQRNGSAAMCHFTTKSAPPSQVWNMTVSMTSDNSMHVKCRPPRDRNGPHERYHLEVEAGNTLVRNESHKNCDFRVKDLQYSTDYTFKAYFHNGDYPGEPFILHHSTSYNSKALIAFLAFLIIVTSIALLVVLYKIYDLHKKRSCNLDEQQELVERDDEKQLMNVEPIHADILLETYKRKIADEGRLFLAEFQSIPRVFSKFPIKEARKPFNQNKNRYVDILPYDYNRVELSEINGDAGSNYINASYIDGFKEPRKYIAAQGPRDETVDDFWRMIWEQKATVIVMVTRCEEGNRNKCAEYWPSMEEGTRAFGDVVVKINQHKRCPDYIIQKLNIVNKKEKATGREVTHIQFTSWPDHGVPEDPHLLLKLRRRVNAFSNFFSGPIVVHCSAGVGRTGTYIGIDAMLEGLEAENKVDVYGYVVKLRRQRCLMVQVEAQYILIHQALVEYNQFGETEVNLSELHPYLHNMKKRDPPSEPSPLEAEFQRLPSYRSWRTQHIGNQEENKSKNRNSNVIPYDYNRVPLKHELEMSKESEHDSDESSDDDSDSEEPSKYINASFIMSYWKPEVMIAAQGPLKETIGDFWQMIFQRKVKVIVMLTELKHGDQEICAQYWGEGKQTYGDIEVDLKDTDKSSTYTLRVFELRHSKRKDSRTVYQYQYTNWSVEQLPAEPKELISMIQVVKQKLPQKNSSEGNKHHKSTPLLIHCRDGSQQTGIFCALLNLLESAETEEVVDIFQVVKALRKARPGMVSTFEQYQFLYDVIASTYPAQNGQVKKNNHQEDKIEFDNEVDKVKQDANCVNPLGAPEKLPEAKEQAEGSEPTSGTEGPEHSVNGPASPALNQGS

Chain of Mitogen-activated protein kinase 1 (P28482 whole entry): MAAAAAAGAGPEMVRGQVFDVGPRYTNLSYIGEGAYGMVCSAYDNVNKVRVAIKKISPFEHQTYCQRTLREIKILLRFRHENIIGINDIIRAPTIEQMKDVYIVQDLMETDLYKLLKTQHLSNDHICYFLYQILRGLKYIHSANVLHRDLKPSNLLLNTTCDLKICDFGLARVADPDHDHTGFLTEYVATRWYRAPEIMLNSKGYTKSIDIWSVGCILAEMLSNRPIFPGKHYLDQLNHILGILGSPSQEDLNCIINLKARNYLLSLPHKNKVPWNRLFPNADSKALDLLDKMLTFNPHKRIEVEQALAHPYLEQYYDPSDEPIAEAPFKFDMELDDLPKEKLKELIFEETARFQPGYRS
Chain of 5-hydroxytryptamine receptor 4 (O70528 whole entry): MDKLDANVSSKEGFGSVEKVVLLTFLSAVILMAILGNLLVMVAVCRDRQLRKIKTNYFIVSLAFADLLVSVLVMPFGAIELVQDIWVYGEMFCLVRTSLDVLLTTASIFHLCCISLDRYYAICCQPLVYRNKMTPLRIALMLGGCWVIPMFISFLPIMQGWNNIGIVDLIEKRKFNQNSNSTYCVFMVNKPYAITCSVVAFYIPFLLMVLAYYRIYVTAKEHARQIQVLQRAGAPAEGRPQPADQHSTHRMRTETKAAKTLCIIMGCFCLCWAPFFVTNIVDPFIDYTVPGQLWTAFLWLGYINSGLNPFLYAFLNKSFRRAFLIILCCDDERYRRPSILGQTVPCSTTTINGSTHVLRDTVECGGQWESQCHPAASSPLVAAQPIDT
Chain of Sigma non-opioid intracellular receptor 1 (Q99720 whole entry): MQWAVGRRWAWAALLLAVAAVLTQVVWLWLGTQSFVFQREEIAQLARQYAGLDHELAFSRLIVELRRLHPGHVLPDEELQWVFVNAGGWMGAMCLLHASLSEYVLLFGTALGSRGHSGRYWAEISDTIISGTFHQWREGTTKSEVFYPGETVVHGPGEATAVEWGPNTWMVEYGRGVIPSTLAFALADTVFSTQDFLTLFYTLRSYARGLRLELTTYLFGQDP
Chain of Mitogen-activated protein kinase 3 (P27361 whole entry): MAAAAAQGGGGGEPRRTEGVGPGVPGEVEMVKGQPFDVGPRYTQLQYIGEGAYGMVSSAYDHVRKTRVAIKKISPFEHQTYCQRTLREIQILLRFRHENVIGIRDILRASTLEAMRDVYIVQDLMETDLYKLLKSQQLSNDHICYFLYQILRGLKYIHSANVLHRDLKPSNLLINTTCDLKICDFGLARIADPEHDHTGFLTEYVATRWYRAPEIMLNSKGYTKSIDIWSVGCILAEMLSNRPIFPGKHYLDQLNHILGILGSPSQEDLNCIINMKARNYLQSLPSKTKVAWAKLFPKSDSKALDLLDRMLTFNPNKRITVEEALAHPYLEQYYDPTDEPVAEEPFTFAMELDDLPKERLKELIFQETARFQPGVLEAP
Chain of Melanocortin receptor 5 (P33032 whole entry): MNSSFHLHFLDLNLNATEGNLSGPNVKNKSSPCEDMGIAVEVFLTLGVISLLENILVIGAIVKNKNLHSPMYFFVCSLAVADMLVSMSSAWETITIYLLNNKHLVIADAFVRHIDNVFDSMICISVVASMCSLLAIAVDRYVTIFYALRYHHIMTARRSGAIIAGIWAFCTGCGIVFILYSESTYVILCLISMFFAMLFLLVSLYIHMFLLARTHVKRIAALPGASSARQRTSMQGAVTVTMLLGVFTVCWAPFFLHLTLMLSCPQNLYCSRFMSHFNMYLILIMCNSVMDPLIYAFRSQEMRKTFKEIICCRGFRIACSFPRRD

SMILES | IC50 ([1]; jurkat) | IC50 [2] | IC50 [3] | IC50 ([4]; cho-k1) | IC50 ([5]; hek293) | IC50 [6] | IC50 [7] | IC50 [8] | IC50 [9] | further results
CCOC(=O)[C@H](CCc1ccccc1)N[C@@H](C)C(=O)N1[C@H](C(=O)O)C[C@@H]2CCC[C@@H]21 | Not Active | Not Active | Not Active | Not Active | Not Active | Not Active | Not Active | Not Active | Not Active | –
CC(C)(C)NC(=O)[C@@H]1CN(Cc2cccnc2)CCN1C[C@@H](O)C[C@@H](Cc1ccccc1)C(=O)N[C@H]1c2ccccc2C[C@H]1O.O | Not Active | Not Active | Not Active | Not Active | Not Active | Not Active | Not Active | Not Active | Not Active | –
CC1(C)[C@H]2CC[C@]1(C)C(=O)C2 [(-)-CAMPHOR] | Not Active | Not Active | Not Active | Not Active | Not Active | Not Active | Not Active | Not Active | Not Active | –
CC(C)(C)NCC(O)c1ccc(O)c(CO)c1 (stereo not drawn) [ALBUTEROL] | Not Active | Not Active | Not Active | Not Active | Not Active | Not Active | Not Active | Not Active | Not Active | –
COc1ccc(CCN2CCC(Nc3nc4ccccc4n3Cc3ccc(F)cc3)CC2)cc1 [ASTEMIZOLE] | – | Not Active | Not Active | Not Active | – | Not Active | Not Active | Not Active | Not Active | IC50 ([5]; read-out: IC50): 2260 nM; Ki ([5]; read-out: Ki): 2120 nM
CN(C)CCCN1c2ccccc2CCc2ccc(Cl)cc21 [CLOMIPRAMINE] | – | Not Active | Not Active | Not Active | Not Active | Not Active | Not Active | Not Active | Not Active | IC50 ([1]; read-out: IC50): 1360 nM; Ki ([1]; read-out: Ki): 572 nM
Clc1ccccc1C(c1ccccc1)(c1ccccc1)n1ccnc1 [CLOTRIMAZOLE] | Not Active | Not Active | – | – | Not Active | Not Active | – | Not Active | Not Active | IC50 ([3]; read-out: IC50): 8770 nM; Ki [3]: 1140 nM; IC50 ([4]; read-out: IC50): 33200 nM; Ki ([4]; read-out: Ki): 16600 nM
O=C(CCCN1CCC(O)(c2ccc(Cl)cc2)CC1)c1ccc(F)cc1 [HALOPERIDOL] | – | Not Active | – | Not Active | Not Active | Not Active | Not Active | Not Active | Not Active | –
Oc1c(I)cc(I)c2cccnc12 [IODOQUINOL] | Not Active | Not Active | Not Active | Not Active | Not Active | – | Not Active | – | Not Active | IC50 ([6]; read-out: IC50): 294 nM; IC50 ([8]; read-out: IC50): 5260 nM
CCC[C@@H]1C[C@@H](C(=O)N[C@@H]([C@H]2O[C@H](SC)[C@H](O)[C@@H](O)[C@H]2O)[C@@H](C)O)N(C)C1 [LINCOMYCIN] | Not Active | Not Active | – | Not Active | Not Active | Not Active | Not Active | Not Active | Not Active | –
COS(C)(=O)=O [METHANESULFONIC ACID METHYL ESTER] | Not Active | Not Active | – | Not Active | Not Active | Not Active | Not Active | Not Active | Not Active | –
CC(C)(O)c1ccccc1CC[C@@H](SCC1(CC(=O)O)CC1)c1cccc(/C=C/c2ccc3ccc(Cl)cc3n2)c1 [MONTELUKAST] | Not Active | Not Active | Not Active | – | Not Active | Not Active | Not Active | Not Active | Not Active | –
CC(=O)[C@H]1CC[C@H]2[C@@H]3CCC4=CC(=O)CC[C@]4(C)[C@H]3CC[C@]12C [PROGESTERONE] | – | Not Active | – | Not Active | Not Active | Not Active | Not Active | Not Active | Not Active | IC50 ([3]; read-out: IC50): 28 nM; Ki [3]: 3.62 nM
CN1[C@@H]2CC[C@H]1C[C@@H](OC(=O)c1c[nH]c3ccccc13)C2 [TROPISETRON] | Not Active | – | – | Not Active | Not Active | Not Active | Not Active | Not Active | Not Active | IC50 ([2]; read-out: IC50): 324 nM; Ki ([2]; read-out: Ki): 54 nM

From ChEMBL document CHEMBL1909046, “DrugMatrix in vitro pharmacology data”
